Paper PMC3694885, “Activity of Bradykinin B2 Receptor Is Regulated by Long-Chain Polyunsaturated Fatty Acids” (PLoS ONE, 2013)

Target: T1, bradykinin B2 receptor (B2R) (Homo sapiens, UniProt P30411)
T1 construct: gene BDKRB2; B2R transfected in HEK293 cells
T1 sequence (P30411 1-391): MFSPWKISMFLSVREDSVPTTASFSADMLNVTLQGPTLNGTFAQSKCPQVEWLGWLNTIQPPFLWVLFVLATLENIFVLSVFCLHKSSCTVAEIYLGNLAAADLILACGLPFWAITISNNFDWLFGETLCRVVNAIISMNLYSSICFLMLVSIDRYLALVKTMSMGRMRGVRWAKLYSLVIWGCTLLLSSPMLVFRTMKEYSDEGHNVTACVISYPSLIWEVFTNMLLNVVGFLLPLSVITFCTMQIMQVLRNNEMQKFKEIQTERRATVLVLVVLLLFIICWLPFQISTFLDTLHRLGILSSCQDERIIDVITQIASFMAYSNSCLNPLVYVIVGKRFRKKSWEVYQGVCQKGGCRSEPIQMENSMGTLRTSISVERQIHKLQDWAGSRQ
Assay: B2R-dependent ERK phosphorylation in transfected HEK293, blocked by the B2R antagonist HOE-140
Assay type: cell-based

## CC/C=C\C/C=C\C/C=C\C/C=C\C/C=C\C/C=C\CCC(=O)O [DHA, docosahexaenoic acid]
  B2R-dependent ERK phosphorylation in transfected HEK293, blocked by the B2R anta: EPA or DHA dependent ERK phosphorylation was inhibited by the selective B2R antagonist.
